Where two headings read alike, the source gives them in different places. Square brackets hold non-standard residues; d marks the D form. * marks the point of attachment. Dpa = 3-(2,4-dinitrophenyl)-L-2,3-diaminopropionyl; Dnp = O=[N+]([O-])c1ccc(*)c([N+](=O)[O-])c1; Mca = COc1ccc2c(CC(=O)*)cc(=O)oc2c1; Cha = N[C@@H](CC1CCCCC1)C(=O)O; Nva = CCC[C@H](N)C(=O)O; Mob = COc1ccc(C*)cc1
Legend:
MMPs = MMPs that cleave the substrate, commercially available substrates, cited from earlier work
[1] = system: MMP-2/9 recombinant protein; test: MMP-1, 2, 3, 7, 9 substrate incubated with MMP-2/9 recombinant protein; type: biochemical
Description: Microdialysis: Microdialysis probes with a molecular weight cutoff of 20 kDa and an outer diameter of 0.5 mm were placed in the LV. The molecular weight cutoff of the microdialysis probe prevented any MMP species from traversing the membrane. A fluorogenic substrate specific for MMP-1, 2, 3, 7, and 9 (Calbiochem, La Jolla, Calif.) at a concentration of 60 ˜mol/L was stored in a 2.5 mL Bee Stinger® Gastight Syringe (Bioanalytical Systems, Inc) and infused at a rate of 5 ˜L/min through the 2 probes by the Baby Bee® Syringe Drive controlled by the MD-1020 Bee Hive Controller (Bioanalytical Systems, Inc). Fluorescence emitted via substrate cleavage deter-mined MMP activity. Substrate was allowed to equilibrate for 20 minutes before the beginning of the protocol. All tubing and syringes were protected from light. The specificity of this substrate was determined and performed as described for these fluorogenic substrates previously. […] With the addition of a broad spectrum MMP inhibitor (BB-94, 10 mmol/L, British Biotech), fluorescence emission was abolished.

MMP-2 and MMP-9 = system: MMP-2 and MMP-9; set-up: species or system pigs; conditions: pig, in vivo
Description: Myocardial Infarction: Mature pigs (n 5 20, Yorkshire, 35-40 kg, Hambone Farms) were instrumented to obtain indexes of LV global and regional function as well as for the measurement of myocardial interstitial MMPs. […] A loading dose of 50 mg sufentanil (Elkins-Sinn) was then administered, and a maintenance infusion of lactated Ringer solution (400 ml/h) and morphine 60 mg/h, Elkins-Sinn) was initiated. A continuous infusion of tubocurarine (3 mg/h, Bristol-Myers-Squibb) and lidocaine (120 mg/h, Elkins-Sinn) was established. In preliminary studies, this anesthetic protocol provided a deep anesthetic plane and stable hemodynamic profiles for at least 8 hours.
In a second set of studies, interstitial myocardial MMP activity was directly quantified using a MMP fluorogenic substrate. For these studies, microdialysis probes containing a 20-kDa molecular mass cutoff (CMA/20, CMA/Microdialysis) membrane were placed within the mid-myocardium. This molecular mass cutoff effectively excluded MMP species from directly traversing from the interstitial space into the microdialysis membrane. […] The samples were read using excitation and emission wavelengths of 280 and 360 nm, respectively (Gilford Fluoro IV; Oberlin, Ohio). […]

[2] = system: a disintegrin and metalloproteinase (ADAM)-10 and -17; test: Specificity of MT1-MMP substrate: incubation with ADAM-10 and -17 cocktail; type: biochemical; conditions: ADAM-10 and -17 cocktail 200 ng/mL alone, 30 mM substrate
Description: (§1) In an additional set of experiments (FIG. 16), MT1-MMP catalytic domain (1000 ng/mL, BIOMOL, Plymouth Meeting, Pa.) was injected into a 96-well polystyrene plate (Nalge Nunc International, Rochester, N.Y.) with a 30 mM mixture of MT1-MMP substrate only or MT1-MMP substrate with MMP-2/9 (500 ng/mL, Chemicon; FIG. 16, top), MMP-8 (10 ng/mL, Calbiochem; FIG. 16, middle), or a disintegrin and metalloproteinase (ADAM)-10 and -17 cocktail (200 ng/mL, R&D Systems; FIG. 16, bottom).

MMP-8 = target: T1, MMP-8 (Homo sapiens, UniProt P22894); test: Specificity of MT1-MMP substrate: incubation with MMP-8; type: biochemical; conditions: MMP-8 10 ng/mL alone, 30 mM substrate
T1 construct: purchased Calbiochem
Description: as §1

MMP-2/9 = test: Specificity of MT1-MMP substrate: incubation with MMP-2/9; type: biochemical; conditions: MMP-2/9 500 ng/mL alone, 30 mM substrate
Description: as §1

[3] = target: T2, MT1-MMP (MMP-14) recombinant catalytic domain (Homo sapiens, UniProt P50281); test: In vitro validation of MT1-MMP fluorogenic substrate with recombinant MT1-MMP catalytic domain; type: biochemical
T2 construct: recombinant MT1-MMP catalytic domain (BIOMOL, Plymouth Meeting, Pa.); purchased BIOMOL, Plymouth Meeting, Pa
Description: Examples of fluorogenic substrate specificity for MMPs are shown below.
Specifically, MT1-MMP substrate (7.5 mM) was injected into a 96-well polystyrene plate (Nalge Nunc International, Rochester, N.Y.) with a 1.0 ng/mL concentration of recombinant MT1-MMP catalytic domain (BIOMOL, Plymouth Meeting, Pa.) and fluorescence emission was recorded. A rapid rise in activity, as measured by fluorescence emission, plateaued around 90 minutes. […] (FIG. 15, top). In addition, full length MT1-MMP (pretreated with 10 mM p-aminophenylmercuric acetate) was incubated for 1 hour at 37° C. with or without an antibody specific for the catalytic domain of MT1-MMP (1000 ng/mL, Chemicon AB8102). After the incubation period, the MT1-MMP substrate was injected and fluorescence emission recorded.
as §1

purified MMP-2/9 = test: In vitro microdialysis of MMP substrate in immersion solution with purified MMP-2/9; type: biochemical; conditions: infused at 2.5 ml/min, purified MMP-2/9, 37° C.
MT1-MMP catalytic domain = test: Validation of LTBP-1 fluorogenic substrate with MT1-MMP catalytic domain; type: biochemical; conditions: 15 uM LTBP-1 substrate; 0007258 5 pM; BB94 1 uM; AB8102 1 mg/mL
Description: Previous studies have identified mutations within a similar type of domain in fibrillin-1, an LTBP-1 homologue, implicated in Marfan Syndrome (MFS). Furthermore, MFS has been associated with the over-stimulation of TGF-Beta signaling as a result of fibrillin-1 mutation. Using this unique sequence, a fluorogenic peptide was constructed and validated. This peptide sequence was synthesized in a caged fluorogenic construct (AnaSpec Inc, CA; newly assigned peptide name:SCJJ-1) with a certified HPLC purity of >98% FIG. 28. Using the incubation conditions and fluorescent equipment described in the previous section, and a specific excitation/emission wavelength (340/483 nm), 15 uM of LTBP-1 was exposed to increasing concentrations of the MT1-MMP catalytic domain FIG. 28.
Thus, an LTBP-1 peptide sequence constructed and validated that is specifically cleaved by MT1-MMP.

MMP-14 = target: T3, MMP-14 (Homo sapiens, UniProt P50281); test: Ex-vivo MMP-14 activity in myocardial extracts; type: biochemical; set-up: dose or concentration left out as unconfirmed; conditions: BB94; FIG. 22
T3 construct: from tissue; host or cells: human myocardium, crude homogenate
Description: A similar experiment was done utilizing the fluorogenic substrate specific for MT1-MMP (MMP-14). Substrate (MMP-14 Substrate I, Fluorogenic, Calbiochem) was diluted in the same reaction buffer and loaded into the FLUOstar® for automatic injection (10 μM). […] The reaction was allowed to proceed in which 200 recordings (398 minutes) were collected. This reaction using the MMP-14 specific substrate was linear with increasing concentrations of a recombinant MMP-14 catalytic domain ([…], Chemicon) (FIG. 20).

MMP-1, 2, 3, 7, 9 = test: Ex-vivo MMP-1, 2, 3, 7, 9 activity in myocardial extracts; type: biochemical, human; set-up: dose or concentration left out as unconfirmed; conditions: BB94; FIG. 18
Description: In addition, these substrates were used to examine MMP activity ex-vivo using myocardial samples from both human and animal specimens. The frozen myocardial tissue was submerged in 2 mL of ice-cold buffer (Cacodylic Acid, NaCl, ZnCl2, CaCl2, NaN3, 0.08% Triton X), homogenized, and spun at 8,000 G for 10 minutes at 4C. The supernatant was then measured, tested for protein concentration, aliquoted, and stored at −70° C. Final protein concentrations were diluted in a reaction buffer containing (0.05% Brij, 50 mM Tris-HCl, 0.2 M NaCl, 10 mM CaCl2, […]) and the samples were loaded onto a 96-well microplate (FluoroNunc® 96-Well Polystyrene Plates) and placed in a 37° C. temperature controlled unit allowing for continuous fluorescence measurements (FLUOstar® Galaxy, BMG Labtechnologies). Substrate (MMP Substrate, Fluorogenic, Calbiochem) was diluted in the same reaction buffer and loaded into the FLUOstar® for automatic injection (12 mM). […] Excitation was set to (280 nm) and emission was set to (360 nm) and readings were taken every 2 minutes following the addition of the substrate. The reaction was allowed to proceed to 200 recordings (398 minutes). This reaction using the MMP-1, 2, 3, 7, 9 specific substrate was linear with increasing concentrations.

angiotensin receptor = angiotensin receptor (Sus scrofa, UniProt P30555); conditions: bolus of 1 mg/kg, infusion of 3 ng/kg/h; previously found; cited from earlier work
angiotensin receptor, sequence (P30555 whole entry, the tested form may be a part): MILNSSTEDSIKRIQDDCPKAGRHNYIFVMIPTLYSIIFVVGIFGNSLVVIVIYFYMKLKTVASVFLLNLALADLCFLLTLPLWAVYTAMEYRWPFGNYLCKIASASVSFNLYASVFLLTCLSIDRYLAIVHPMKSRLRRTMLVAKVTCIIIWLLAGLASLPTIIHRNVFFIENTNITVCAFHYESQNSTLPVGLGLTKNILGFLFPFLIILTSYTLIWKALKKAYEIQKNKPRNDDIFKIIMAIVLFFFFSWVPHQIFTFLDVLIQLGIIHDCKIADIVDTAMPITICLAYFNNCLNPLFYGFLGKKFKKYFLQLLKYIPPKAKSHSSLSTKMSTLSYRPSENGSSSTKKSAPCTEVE

T1 sequence (P22894 101-467, species assumed): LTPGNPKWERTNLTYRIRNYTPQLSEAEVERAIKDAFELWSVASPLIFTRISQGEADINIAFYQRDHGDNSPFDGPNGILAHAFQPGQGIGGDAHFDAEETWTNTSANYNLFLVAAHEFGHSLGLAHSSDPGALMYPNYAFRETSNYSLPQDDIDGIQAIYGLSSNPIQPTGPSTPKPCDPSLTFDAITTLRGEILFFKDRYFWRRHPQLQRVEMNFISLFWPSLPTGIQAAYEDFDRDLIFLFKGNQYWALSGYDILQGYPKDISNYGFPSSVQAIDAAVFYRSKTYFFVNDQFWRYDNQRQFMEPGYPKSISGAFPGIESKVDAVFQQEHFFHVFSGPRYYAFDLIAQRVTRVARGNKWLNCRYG

## DNP-Pro-Leu-Gly-Leu-Trp-Ala-D-Arg-NH2 (Dnp-PLGLWA[dR]-NH2; SMILES CC(C)C[C@H](NC(=O)CNC(=O)[C@H](CC(C)C)NC(=O)[C@@H]1CCCN1c1ccc([N+](=O)[O-])cc1[N+](=O)[O-])C(=O)N[C@@H](Cc1c[nH]c2ccccc12)C(=O)N[C@@H](C)C(=O)N[C@H](CCCNC(=N)N)C(N)=O) [SEQ ID NO: 1]
MMPs
  Specificity: MMP-1,2,3,7,9
MMPs; listed as SEQ ID NO:1
  Specificity: cleaved selectively by MMPs 1, 2, 3, 7, 9
[1]; MMP-2/9 recombinant protein 500 ng/mL
  time to steady-state fluorescence emission: ≤ 60 min

## CNC(=O)[C@H](Cc1c[nH]c2ccccc12)NC(=O)[C@@H](CC(=O)NO)CC(C)C [galardin]
MMP-2 and MMP-9
  fluorescent activity in interstitial microdialysate samples on coinfusion with MMP substrate: abolished all fluorescent activity

## MCA-Pro-Leu-Ala-Cys(p-OMeBz)-Trp-Ala-Arg(Dpa)-NH2 (Mca-PLAC(Mob)WAR(Dpa)-NH2) [SEQ ID NO: 8]
[2]
  fluorescence emission from the substrate: failed to cause fluorescence emission
MMP-8
  fluorescence emission from the substrate: failed to cause fluorescence emission
MMP-2/9
  fluorescence emission from the substrate: failed to cause fluorescence emission
MMPs
  Specificity: MMP-14
MMPs; listed as SEQ ID NO:8
  Specificity: cleaved selectively by MMP-14
[3]; injection of MT1-MMP catalytic domain 1000 ng/mL, in all protease cocktails
  fluorescence emission from the substrate: rapid rise in fluorescence emission
[3]; substrate 7.5 mM, 1.0 ng/mL recombinant MT1-MMP catalytic domain
  time at which fluorescence emission plateaued: around 90 minutes

## DNP-Pro-Tyr-Ala-Tyr-Trp-Met-Arg-OH (Dnp-PYAYWMR-OH; SMILES CSCC[C@H](NC(=O)[C@H](Cc1c[nH]c2ccccc12)NC(=O)[C@H](Cc1ccc(O)cc1)NC(=O)[C@H](C)NC(=O)[C@H](Cc1ccc(O)cc1)NC(=O)[C@@H]1CCCN1c1ccc([N+](=O)[O-])cc1[N+](=O)[O-])C(=O)N[C@@H](CCCNC(=N)N)C(=O)O) [SEQ ID NO: 4]
MMPs
  Specificity: MMP-3

## DNP-Pro-Leu-Ala-Tyr-Trp-Ala-Arg-OH (Dnp-PLAYWAR-OH; SMILES CC(C)C[C@H](NC(=O)[C@@H]1CCCN1c1ccc([N+](=O)[O-])cc1[N+](=O)[O-])C(=O)N[C@@H](C)C(=O)N[C@@H](Cc1ccc(O)cc1)C(=O)N[C@@H](Cc1c[nH]c2ccccc12)C(=O)N[C@@H](C)C(=O)N[C@@H](CCCNC(=N)N)C(=O)O) [SEQ ID NO: 6]
MMPs
  Specificity: MMP-8

## Dnp-PLGLGMWSR-OH
Purified MMP-2/9
  time at which relative fluorescence plateaued: ≤ 60 min

## DNP-Pro-Leu-Gly-Met-Trp-Ser-Arg-OH (Dnp-PLGMWSR-OH; SMILES CSCC[C@H](NC(=O)CNC(=O)[C@H](CC(C)C)NC(=O)[C@@H]1CCCN1c1ccc([N+](=O)[O-])cc1[N+](=O)[O-])C(=O)N[C@@H](Cc1c[nH]c2ccccc12)C(=O)N[C@@H](CO)C(=O)N[C@@H](CCCNC(=N)N)C(=O)O) [SEQ ID NO: 9]
MMPs
  Specificity: MMP-2,9

## DNP-Arg-Pro-Leu-Ala-Leu-Trp-Arg-Ser-OH (Dnp-RPLALWRS-OH; SMILES CC(C)C[C@H](NC(=O)[C@H](C)NC(=O)[C@H](CC(C)C)NC(=O)[C@@H]1CCCN1C(=O)[C@H](CCCNC(=N)N)Nc1ccc([N+](=O)[O-])cc1[N+](=O)[O-])C(=O)N[C@@H](Cc1c[nH]c2ccccc12)C(=O)N[C@@H](CCCNC(=N)N)C(=O)N[C@@H](CO)C(=O)O) [SEQ ID NO: 5]
MMPs
  Specificity: MMP-7

## DABCYL-GABA-Arg-Pro-Lys-Pro-Val-Glu-Nva-Trp-Arg-Glu(EDANS)-Ala-Lys-NH2 [SEQ ID NO: 2]
MMPs
  Specificity: MMP-3,5,9,13

## CNC(=O)[C@H](Cc1ccccc1)NC(=O)[C@H](CC(C)C)[C@H](CSc1cccs1)C(=O)NO [BB94]
MT1-MMP catalytic domain
  fluorescent activity on co-incubation: extinguished all fluorescent activity
MMP-14
  inhibition of MMP-14 substrate reaction: significantly inhibited
MMP-1, 2, 3, 7, 9
  inhibition of MMP-1, 2, 3, 7, 9 substrate reaction: significantly inhibited
[3]; MT1-MMP recombinant catalytic domain, FIG. 13
  fluorescence emission with addition of BB94: abolishment of fluorescence emission
[1]; BB-94, MMP-2/9 500 ng/mL
  fluorescence emission with addition of inhibitor: abolished

## CCCCC(=O)N(Cc1ccc(-c2ccccc2-c2nnn[nH]2)cc1)[C@H](C(=O)O)C(C)C [Valsartan]
Angiotensin receptor
  effect on angiotensin pressor response: inhibited the angiotensin pressor response

## MCA-Pro-Cha-Gly-Nva-His-Ala-Dpa-NH2 (Mca-P[Cha]G[Nva]HA-{Dpa-NH2}) [SEQ ID NO: 7]
MMPs
  Specificity: MMP-13

## DNP-Pro-Leu-Ala-Leu-Trp-Arg-OH (Dnp-PLALWR-OH; SMILES CC(C)C[C@H](NC(=O)[C@H](C)NC(=O)[C@H](CC(C)C)NC(=O)[C@@H]1CCCN1c1ccc([N+](=O)[O-])cc1[N+](=O)[O-])C(=O)N[C@@H](Cc1c[nH]c2ccccc12)C(=O)N[C@@H](CCCNC(=N)N)C(=O)O) [SEQ ID NO: 3]
MMPs
  Specificity: MMP-1
